Values after ≈ are worked out from the molar mass of the structure shown.
Tests used:
[1] = tested on: Parabacteroides distasonis; assay: Minimum inhibitory concentration required for the antibacterial activity against Bacillus distasonis Heidelberg; assay type: functional
Bacteroides ovatus = assay: Minimum inhibitory concentration required for the antibacterial activity against Bacillus ovatus Heidelberg; assay type: functional, bacillus ovatu
Bacteroides fragilis [2] = assay: Minimum inhibitory concentration required for the antibacterial activity against Bacillus fragilis GA I - 0558 Japan; assay type: functional
[3] = tested on: Fusobacterium necrophorum; assay: Minimum inhibitory concentration required for the antibacterial activity against Sphaerophorus necrophorus Kr; assay type: functional
Thomasclavelia ramosa = assay: Minimum inhibitory concentration required for the antibacterial activity against Clostridium ramosum DSM 1402; assay type: functional
[4] = tested on: Parabacteroides distasonis; assay: Minimum inhibitory concentration required for the antibacterial activity against Bacillus distasonis Kr; assay type: functional
Bacteroides fragilis [5] = assay: Minimum inhibitory concentration required for the antibacterial activity against Bacillus fragilis DSM 2151; assay type: functional
Phocaeicola vulgatus = assay: Minimum inhibitory concentration required for the antibacterial activity against Bacillus valgatus Kr III; assay type: functional
Clostridium sporogenes = assay: Minimum inhibitory concentration required for the antibacterial activity against Clostridium sporogenes; assay type: functional
Bacteroides fragilis [6] = assay: Minimum inhibitory concentration required for the antibacterial activity against Bacillus fragilis L 1168 Italien; assay type: functional
Clostridium butyricum = assay: Minimum inhibitory concentration required for the antibacterial activity against Clostridium butyricum; assay type: functional
Clostridium perfringens [7] = assay: Minimum inhibitory concentration required for the antibacterial activity against Clostridium perfringens DSM 756; assay type: functional
[8] = tested on: Peptostreptococcus anaerobius; assay: Minimum inhibitory concentration required for the antibacterial activity against Peptostrept. anaer. DSM 20357; assay type: functional
Bacteroides fragilis [9] = assay: Minimum inhibitory concentration required for the antibacterial activity against Bacillus fragilis 2034/35 Kr 43; assay type: functional
[10] = tested on: Bacteroides thetaiotaomicron; assay: Minimum inhibitory concentration required for the antibacterial activity against Bacillus thetaiotaomicron DSM 2079; assay type: functional
[11] = tested on: Bacteroides thetaiotaomicron; assay: Minimum inhibitory concentration required for the antibacterial activity against Bacillus thetaiotaomicron 235 Munchen; assay type: functional
Bacteroides fragilis [12] = assay: Minimum inhibitory concentration required for the antibacterial activity against Bacillus fragilis 4661 Kr; assay type: functional
[13] = tested on: Prevotella melaninogenica; assay: Minimum inhibitory concentration required for the antibacterial activity against Bacillus melaninogenicus Kr; assay type: functional
Fusobacterium nucleatum = assay: Minimum inhibitory concentration required for the antibacterial activity against Fusobacterium nucleatum DSM 20482; assay type: functional
[14] = tested on: Peptostreptococcus anaerobius; assay: Minimum inhibitory concentration required for the antibacterial activity against Peptostrept. anaer. Kr II; assay type: functional
[15] = tested on: Peptostreptococcus anaerobius; assay: Minimum inhibitory concentration required for the antibacterial activity against Peptostrept. anaer. Kr I; assay type: functional
Clostridium perfringens [16] = assay: Minimum inhibitory concentration required for the antibacterial activity against Clostridium perfringens 24071; assay type: functional
[17] = tested on: Peptostreptococcus anaerobius; assay: Minimum inhibitory concentration required for the antibacterial activity against Peptostrept. anaer. 222 I/82; assay type: functional
Clostridium perfringens [18] = assay: Minimum inhibitory concentration required for the antibacterial activity against Clostridium perfringens 1024027; assay type: functional
Bacteroides fragilis [19] = assay: Minimum inhibitory concentration required for the antibacterial activity against Bacillus fragilis 4891/91 Kr; assay type: functional
Bacteroides fragilis [20] = assay: Minimum inhibitory concentration required for the antibacterial activity against Bacillus fragilis 1560 I/82; assay type: functional
Clostridium septicum = assay: Minimum inhibitory concentration required for the antibacterial activity against Clostridium septicum; assay type: functional
[21] = tested on: Peptoniphilus asaccharolyticus; assay: Minimum inhibitory concentration required for the antibacterial activity against Peptococcus asacchar. DSM 20463; assay type: functional
Clostridium perfringens [22] = assay: Minimum inhibitory concentration required for the antibacterial activity against Clostridium perfringens 24072; assay type: functional
[23] = tested on: Prevotella melaninogenica; assay: Minimum inhibitory concentration required for the antibacterial activity against Bacillus melaninogenicus Heidelberg; assay type: functional
Bacteroides fragilis [24] = assay: Minimum inhibitory concentration required for the antibacterial activity against Bacillus fragilis Kr 1 TV; assay type: functional
Bacteroides fragilis [25] = assay: Minimum inhibitory concentration required for the antibacterial activity against Bacillus fragilis 06688; assay type: functional
Bacteroides fragilis [26] = assay: Minimum inhibitory concentration required for the antibacterial activity against Bacillus fragilis ES 25; assay type: functional
Bacteroides fragilis [27] = assay: Minimum inhibitory concentration required for the antibacterial activity against Bacillus fragilis 010848; assay type: functional
Anaerococcus prevotii = assay: Minimum inhibitory concentration required for the antibacterial activity against Peptococcus prevotii DSM 20548; assay type: functional
Bacteroides fragilis [28] = assay: Minimum inhibitory concentration required for the antibacterial activity against Bacillus fragilis Kr II; assay type: functional
Staphylococcus aureus [29] = assay: Minimum inhibitory concentration required for the antibacterial activity against Staphylococcus aureus 25768; assay type: functional
Staphylococcus aureus [30] = assay: Minimum inhibitory concentration required for the antibacterial activity against Staphylococcus aureus 48N Munchen; assay type: functional
Staphylococcus aureus [31] = assay: Minimum inhibitory concentration required for the antibacterial activity against Staphylococcus aureus 21b Belgium; assay type: functional
Staphylococcus aureus [32] = assay: Minimum inhibitory concentration required for the antibacterial activity against Staphylococcus aureus 77 Innsbruck; assay type: functional
Staphylococcus aureus [33] = assay: Minimum inhibitory concentration required for the antibacterial activity against Staphylococcus aureus 79B Innsbruck; assay type: functional
Staphylococcus aureus [34] = assay: Minimum inhibitory concentration required for the antibacterial activity against Staphylococcus aureus 4978 Israel; assay type: functional
Staphylococcus aureus [35] = assay: Minimum inhibitory concentration required for the antibacterial activity against Staphylococcus aureus 41h Belgium; assay type: functional
Staphylococcus aureus [36] = assay: Minimum inhibitory concentration required for the antibacterial activity against Staphylococcus aureus 13N Munchen; assay type: functional
Staphylococcus aureus [37] = assay: Minimum inhibitory concentration required for the antibacterial activity against Staphylococcus aureus 17N Munchen; assay type: functional
Staphylococcus aureus [38] = assay: Minimum inhibitory concentration required for the antibacterial activity against Staphylococcus aureus 25085; assay type: functional
Staphylococcus aureus [39] = assay: Minimum inhibitory concentration required for the antibacterial activity against Staphylococcus aureus 25463; assay type: functional
Staphylococcus aureus [40] = assay: Minimum inhibitory concentration required for the antibacterial activity against Staphylococcus aureus 25697; assay type: functional
Staphylococcus aureus [41] = assay: Minimum inhibitory concentration required for the antibacterial activity against Staphylococcus aureus 25464; assay type: functional
Staphylococcus aureus [42] = assay: Minimum inhibitory concentration required for the antibacterial activity against Staphylococcus aureus 90 Innsbruck; assay type: functional
Staphylococcus aureus [43] = assay: Minimum inhibitory concentration required for the antibacterial activity against Staphylococcus aureus 86 Innsbruck; assay type: functional
Staphylococcus aureus [44] = assay: Minimum inhibitory concentration required for the antibacterial activity against Staphylococcus aureus 25470; assay type: functional
Staphylococcus aureus [45] = assay: Minimum inhibitory concentration required for the antibacterial activity against Staphylococcus aureus 1756; assay type: functional; conditions: Staphylococcus aureus; read-out: MIC
Staphylococcus aureus [46] = assay: Minimum inhibitory concentration for the antibacterial activity against Staphylococcus aureus 48N Munchen; assay type: functional

CCn1cc(C(=O)O)c(=O)c2cc(F)c(N3CCNCC3)cc21 [NORFLOXACIN]
MIC [1]: > 16 µg/mL
MIC (Bacteroides ovatus): > 16 µg/mL
MIC (Bacteroides fragilis [2]): > 16 µg/mL
MIC [3]: 2 µg/mL (≈ 6.26 µM)
MIC (Thomasclavelia ramosa): > 16 µg/mL
MIC [4]: > 16 µg/mL
MIC (Bacteroides fragilis [5]): > 16 µg/mL
MIC (Phocaeicola vulgatus): > 16 µg/mL
MIC (Clostridium sporogenes): 16 µg/mL (≈ 50.1 µM)
MIC (Bacteroides fragilis [6]): > 16 µg/mL
MIC (Clostridium butyricum): 16 µg/mL (≈ 50.1 µM)
MIC (Clostridium perfringens [7]): > 16 µg/mL
MIC [8]: > 16 µg/mL
MIC (Bacteroides fragilis [9]): > 16 µg/mL
MIC [10]: > 16 µg/mL
MIC [11]: > 16 µg/mL
MIC (Bacteroides fragilis [12]): > 16 µg/mL
MIC [13]: 16 µg/mL (≈ 50.1 µM)
MIC (Fusobacterium nucleatum): 16 µg/mL (≈ 50.1 µM)
MIC [14]: 2 µg/mL (≈ 6.26 µM)
MIC [15]: > 16 µg/mL
MIC (Clostridium perfringens [16]): 4 µg/mL (≈ 12.5 µM)
MIC [17]: > 16 µg/mL
MIC (Clostridium perfringens [18]): 2 µg/mL (≈ 6.26 µM)
MIC (Bacteroides fragilis [19]): > 16 µg/mL
MIC (Bacteroides fragilis [20]): > 16 µg/mL
MIC (Clostridium septicum): 16 µg/mL (≈ 50.1 µM)
MIC [21]: 4 µg/mL (≈ 12.5 µM)
MIC (Clostridium perfringens [22]): 4 µg/mL (≈ 12.5 µM)
MIC [23]: > 16 µg/mL
MIC (Bacteroides fragilis [24]): > 16 µg/mL
MIC (Bacteroides fragilis [25]): > 16 µg/mL
MIC (Bacteroides fragilis [26]): > 16 µg/mL
MIC (Bacteroides fragilis [27]): > 16 µg/mL
MIC (Anaerococcus prevotii): > 16 µg/mL
MIC (Bacteroides fragilis [28]): > 16 µg/mL

CC1(C)S[C@@H]2[C@H](NC(=O)[C@H](NC(=O)N3CCN(S(C)(=O)=O)C3=O)c3ccccc3)C(=O)N2[C@H]1C(=O)O [MEZLOCILLIN]
MIC (Staphylococcus aureus [29]): 25 µg/mL (≈ 46.3 µM)
MIC (Staphylococcus aureus [30]): 12.5 µg/mL (≈ 23.2 µM)
MIC (Staphylococcus aureus [31]): 50 µg/mL (≈ 92.7 µM)
MIC (Staphylococcus aureus [32]): 100 µg/mL (≈ 185 µM)
MIC (Staphylococcus aureus [33]): 50 µg/mL (≈ 92.7 µM)
MIC (Staphylococcus aureus [34]): 3.12 µg/mL (≈ 5.78 µM)
MIC (Staphylococcus aureus [35]): 3.12 µg/mL (≈ 5.78 µM)
MIC (Staphylococcus aureus [36]): 50 µg/mL (≈ 92.7 µM)
MIC (Staphylococcus aureus [37]): 12.5 µg/mL (≈ 23.2 µM)
MIC (Staphylococcus aureus [38]): 50 µg/mL (≈ 92.7 µM)
MIC (Staphylococcus aureus [39]): 12.5 µg/mL (≈ 23.2 µM)
MIC (Staphylococcus aureus [40]): 25 µg/mL (≈ 46.3 µM)
MIC (Staphylococcus aureus [41]): 100 µg/mL (≈ 185 µM)
MIC (Staphylococcus aureus [42]): > 100 µg/mL
MIC (Staphylococcus aureus [43]): 50 µg/mL (≈ 92.7 µM)
MIC (Staphylococcus aureus [44]): 25 µg/mL (≈ 46.3 µM)
MIC (Staphylococcus aureus [45]): 50 µg/mL (≈ 92.7 µM)

COc1cccc(OC)c1C(=O)N[C@@H]1C(=O)N2[C@@H]1SC(C)(C)[C@@H]2C(=O)O [METHICILLIN]
MIC (Staphylococcus aureus [29]): 6.25 µg/mL (≈ 16.4 µM)
MIC (Staphylococcus aureus [31]): > 100 µg/mL
MIC (Staphylococcus aureus [46]): 6.25 µg/mL (≈ 16.4 µM)
MIC (Staphylococcus aureus [32]): 50 µg/mL (≈ 131 µM)
MIC (Staphylococcus aureus [33]): 25 µg/mL (≈ 65.7 µM)
MIC (Staphylococcus aureus [34]): ≤ 0.78 µg/mL
MIC (Staphylococcus aureus [35]): > 100 µg/mL
MIC (Staphylococcus aureus [36]): 50 µg/mL (≈ 131 µM)
MIC (Staphylococcus aureus [37]): 3.12 µg/mL (≈ 8.2 µM)
MIC (Staphylococcus aureus [38]): 6.25 µg/mL (≈ 16.4 µM)
MIC (Staphylococcus aureus [39]): 1.56 µg/mL (≈ 4.1 µM)
MIC (Staphylococcus aureus [40]): 6.25 µg/mL (≈ 16.4 µM)
MIC (Staphylococcus aureus [41]): > 100 µg/mL
MIC (Staphylococcus aureus [42]): 50 µg/mL (≈ 131 µM)
MIC (Staphylococcus aureus [43]): 25 µg/mL (≈ 65.7 µM)
MIC (Staphylococcus aureus [44]): > 100 µg/mL
MIC (Staphylococcus aureus [45]): 50 µg/mL (≈ 131 µM)

Cc1onc(-c2ccccc2)c1C(=O)N[C@@H]1C(=O)N2[C@@H]1SC(C)(C)[C@@H]2C(=O)O [OXACILLIN]
MIC (Staphylococcus aureus [29]): 6.25 µg/mL (≈ 15.6 µM)
MIC (Staphylococcus aureus [30]): ≤ 0.78 µg/mL
MIC (Staphylococcus aureus [31]): > 100 µg/mL
MIC (Staphylococcus aureus [32]): 100 µg/mL (≈ 249 µM)
MIC (Staphylococcus aureus [33]): 50 µg/mL (≈ 125 µM)
MIC (Staphylococcus aureus [34]): ≤ 0.78 µg/mL
MIC (Staphylococcus aureus [35]): > 100 µg/mL
MIC (Staphylococcus aureus [36]): > 100 µg/mL
MIC (Staphylococcus aureus [37]): 1.56 µg/mL (≈ 3.89 µM)
MIC (Staphylococcus aureus [38]): 3.12 µg/mL (≈ 7.77 µM)
MIC (Staphylococcus aureus [39]): 1.56 µg/mL (≈ 3.89 µM)
MIC (Staphylococcus aureus [40]): 1.56 µg/mL (≈ 3.89 µM)
MIC (Staphylococcus aureus [41]): > 100 µg/mL
MIC (Staphylococcus aureus [42]): > 100 µg/mL
MIC (Staphylococcus aureus [43]): 100 µg/mL (≈ 249 µM)
MIC (Staphylococcus aureus [44]): 100 µg/mL (≈ 249 µM)
MIC (Staphylococcus aureus [45]): 50 µg/mL (≈ 125 µM)
